In US5340818A, “Methods and compositions for inhibiting tumor cell growth” (priority 1993, dated 1994):
Several values for one entry are separate records, joined by “and”; a condition that tells them apart may be missing. Equal values may be shown once. Entries after “also recorded” stand apart in the source; their conditions may differ. Read-outs that look alike come from different tables or passages of the source.

How the values were obtained:
Lewis lung carcinoma = Lewis lung carcinoma survival time evaluation in C57BL/6 mice; assay type: in vivo, mouse; set-up: Survival Time, individual mice / AST (average survival time): unit not given here; conditions: for AST (average survival time) / Day #7 AWC (average weight change) / N/T (29 day survivors/total mice) / Survival Time, individual mice / % ILS (increase in lifespan): day 1, QDX4 ip; for % ILS (increase in lifespan): 25% or greater indicates activity
Text: Tumor-Lewis Lung C. 3 × 10^5 cells (ip) in C57BL/6, FEM, 19-21
(§1) Diluent-CMC + 1 drop Tween 80
(§2) Schedule: Day 1, QDX4 (ip)

B-16 Melanoma = experiment: B-16 melanoma in mice; assay type: in vivo, mouse; conditions: day 1 QDX4
Text: Chemotherapeutic Effects of Acronycine and TSA-35 against Solid

[1] = tested on: Ridgeway osteogenic sarcoma; conditions: ip, 48 × 1 × 9 mg/kg/day; cited from earlier work
Mecca lymphosarcoma = conditions: ip, 30 × 1 × 10 mg/kg/day; cited from earlier work
[2] = tested on: DNA synthesis in HL-60 cells; experiment: Inhibition of [3H-methyl]dThd incorporation into DNA of HL-60 cells; assay type: cell-based, human; conditions: Homo sapiens, HL-60, at 0.03 mg/mL; read-out: % Inhibition of Precursor Incorporation, DNA
Procedure, shortened: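 HL-60 cells, 2.2×10^6 /ml, preincubated 15 min with compound in 0.3% DMSO, then 30 min with [3H-methyl]dThd (1 μCi, 0.15 nmole/ml). DNA incorporation compared with DMSO-only control.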

[3] = tested on: protein synthesis in HL-60 cells; experiment: Inhibition of [2,3,4,5-3H]L-Leu incorporation into protein of HL-60 cells; assay type: cell-based, human; conditions: Homo sapiens
Procedure, shortened: (§3)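 HL-60 cells (2.2×10^6/ml) preincubated 15 min with compound (0.03 mg/ml, 0.3% DMSO), then 30 min with [5-3H]Cyd (5 μCi, 0.23 nmol/ml) for RNA or [2,3,4,5-3H]L-Leu (0.5 μCi, 0.004 nmol/ml) for protein. Inhibition relative to DMSO-only incorporation.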

Carcinoma EO771 = Carcinoma EO771 (E07713 mammary adenocarcinoma) survival time evaluation in C57BL/6 mice; assay type: in vivo
Text: Tumor-Carcinoma EO771 3 × 10^5 cells (ip) in C57BL/6, FEM,
as §1, §2

HL-60 cells = experiment: HL-60 cell growth inhibition, 72 h; assay type: cell-based, human; conditions: HL-60, 72 h; for IC50: read-out: Cell Growth Inhibition, IC50
Procedure, shortened: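 HL-60 cells seeded at 1.5×10^5/ml in RPMI 1640, exposed 72 h at 37° C, 5% CO2 to compound at 0.0025-0.05 mg/ml in 0.1% DMSO. Viable cells counted by trypan blue exclusion; IC50 from median-effect analysis over three to five dose levels versus DMSO control.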

Adrenocarcinoma 755 = conditions: ip, 30 × 1 × 10 mg/kg/day; cited from earlier work
[4] = tested on: RNA synthesis in HL-60 cells; experiment: Inhibition of [5-3H]Cyd incorporation into RNA of HL-60 cells; assay type: cell-based, human; conditions: Homo sapiens, HL-60, 0.5 h
Procedure, shortened: as §3

[5] = Table 8, 25 mg/kg ip, day 1 QDX4
[6] = Table 8, 50 mg/kg ip, day 1 QDX4
[7] = Table 8, 100 mg/kg ip, day 1 QDX4
[8] = Table 8, 150 mg/kg ip, day 1 QDX4

With `COc1cc2c(c3c1c(=O)c1ccccc1n3C)C=CC(C)(C)O2` [Compound 1, Acronycine] the “AST (average survival time)” value (Lewis lung carcinoma; 25 mg/kg) was 14.6, the “Day #7 AWC (average weight change)” value (Lewis lung carcinoma; 25 mg/kg) was -0.6 g and the “N/T (29 day survivors/total mice)” value (Lewis lung carcinoma; 25 mg/kg) was 0/5. The “Survival Time, individual mice” value (Lewis lung carcinoma; 25 mg/kg) was 14 and 17, the “% ILS (increase in lifespan)” value (Lewis lung carcinoma; 25 mg/kg) was 40% and the “AST (average survival time)” value (Lewis lung carcinoma; 50 mg/kg) was 14.6. The “Day #7 AWC (average weight change)” value (Lewis lung carcinoma; 50 mg/kg) was -0.8 g, the “N/T (29 day survivors/total mice)” value (Lewis lung carcinoma; 50 mg/kg) was 0/5 and the “Survival Time, individual mice” value (Lewis lung carcinoma; 50 mg/kg) was 14 and 15. The “% ILS (increase in lifespan)” value (Lewis lung carcinoma; 50 mg/kg) was 40%, the “% ILS” value (Lewis lung carcinoma; [5]) was 40% and the “Day 7 BWC (body weight change)” value (Lewis lung carcinoma; [5]) was -0.6 g. The “N/T (40 day tumorfree mice/total)” value (Lewis lung carcinoma; [5]) was 0/5, the “% ILS” value (Lewis lung carcinoma; [6]) was 34% and the “Day 7 BWC (body weight change)” value (Lewis lung carcinoma; [6]) was -0.5 g. The “N/T (40 day tumorfree mice/total)” value (Lewis lung carcinoma; [6]) was 0/15, the “N/T (40 day tumorfree mice/total)” value (Lewis lung carcinoma; [7]) was 0/5 and the death (Lewis lung carcinoma; [7]) was 5/5. For the same compound, the “% ILS” value (B-16 Melanoma; 50 mg/kg ip) was 24%, the “Day 7 BWC (body weight change)” value (B-16 Melanoma; 50 mg/kg ip) was -0.6 g and the “N/T (40 day tumorfree mice/total)” value (B-16 Melanoma; 50 mg/kg ip) was 0/5. The Percent activity [1] was 100(10) Percent, the Percent activity (Mecca lymphosarcoma) was 63(7) Percent and the inhibition at 30 µg/mL [2] was ~90%. The inhibition at 30 µg/mL ([3]; HL-60, read-out: % Inhibition of Precursor Incorporation, Protein, at 0.03 mg/mL) was 25.4%, the “AST (average survival time)” value (Carcinoma EO771; 50 mg/kg, day 1, QDX4 ip) was 13.4 and the “Day #7 AWC (average weight change)” value (Carcinoma EO771; 50 mg/kg, day 1, QDX4 ip) was “+0.4 g”. The “N/T (22 day survivors/total mice)” value (Carcinoma EO771; 50 mg/kg, day 1, QDX4 ip) was 0/5, the “Survival Time, individual mice” value (Carcinoma EO771; 50 mg/kg, day 1, QDX4 ip) was 11 and 14 and 17 and the “% ILS (increase in lifespan)” value (Carcinoma EO771; 50 mg/kg, day 1, QDX4 ip, 25% or greater indicates activity) was 26%. The toxicity induced deaths (Carcinoma EO771; 100 mg/kg daily for 4 days ip) was 1 out of 3, the “AST (average survival time)” value (Carcinoma EO771; 100 mg/kg, day 1, QDX4 ip) was 11.0 and the “Day #7 AWC (average weight change)” value (Carcinoma EO771; 100 mg/kg, day 1, QDX4 ip) was “+0.5 g”. For the same compound, the “N/T (22 day survivors/total mice)” value (Carcinoma EO771; 100 mg/kg, day 1, QDX4 ip) was 0/3, the “% ILS (increase in lifespan)” value (Carcinoma EO771; 100 mg/kg, day 1, QDX4 ip, 25% or greater indicates activity) was 4% and the “Survival Time, individual mice” value (Carcinoma EO771; 100 mg/kg, day 1, QDX4 ip, t = died of toxicity) was 4t and 10 and 12. For the same compound, the “% ILS” value (Carcinoma EO771; [6]) was 26%, the “Day 7 BWC (body weight change)” value (Carcinoma EO771; [6]) was “+0.4 g” and the “N/T (40 day tumorfree mice/total)” value (Carcinoma EO771; [6]) was 0/5. The “% ILS” value (Carcinoma EO771; [7]) was 4%, the “N/T (40 day tumorfree mice/total)” value (Carcinoma EO771; [7]) was 0/3 and the death (Carcinoma EO771; [7]) was 1/3. The “cell growth inhibition, in words” value (HL-60 cells) was “significantly active”, the Percent activity (Adrenocarcinoma 755) was 40(10) Percent and the inhibition at 30 µg/mL ([4]; read-out: % Inhibition of Precursor Incorporation, RNA, at 0.03 mg/mL) was 21.3%.
For `COc1c(OC)c(OC)c2c(c1O)c(=O)c1ccc(O)c(OC)c1n2C` [Compound 31, Glyfoline], the “AST (average survival time)” value (Lewis lung carcinoma; 25 mg/kg) was 14.8, the “N/T (29 day survivors/total mice)” value (Lewis lung carcinoma; 25 mg/kg) was 0/5 and the “% ILS (increase in lifespan)” value (Lewis lung carcinoma; 25 mg/kg) was 42%. The “Survival Time, individual mice” value (Lewis lung carcinoma; 25 mg/kg, listed as TSA-35) was 14 and 18, the “AST (average survival time)” value (Lewis lung carcinoma; 50 mg/kg) was > 20 and the “N/T (29 day survivors/total mice)” value (Lewis lung carcinoma; 50 mg/kg) was 2 out of 5. The “% ILS (increase in lifespan)” value (Lewis lung carcinoma; 50 mg/kg) was > 92%, the “N/T (29 day survivors/total mice)” value (Lewis lung carcinoma; 50 mg/kg, listed as TSA-35) was 2/5 and the “Survival Time, individual mice” value (Lewis lung carcinoma; 50 mg/kg, listed as TSA-35) was 14 and > 29. The “% ILS” value (Lewis lung carcinoma; [5]) was 42%, the “N/T (40 day tumorfree mice/total)” value (Lewis lung carcinoma; [5]) was 0/5 and the “% ILS” value (Lewis lung carcinoma; [6]) was > 59%. For the same compound, the “N/T (40 day tumorfree mice/total)” value (Lewis lung carcinoma; [6]) was 2/15, the “% ILS” value (Lewis lung carcinoma; [7]) was > 46% and the “N/T (40 day tumorfree mice/total)” value (Lewis lung carcinoma; [7]) was 1/10. For the same compound, the “% ILS” value (Lewis lung carcinoma; [8]) was > 79%, the “N/T (40 day tumorfree mice/total)” value (Lewis lung carcinoma; [8]) was 2/8 and the “toxicity to mice, in words” value (Lewis lung carcinoma; mouse, in vivo) was “less toxicity to mice than that of compound 1”. For the same compound, the “Day 7 BWC (body weight change)” value (Lewis lung carcinoma; mouse, in vivo, ip, 25 mg/kg) was “+0.2 g”, the “Day 7 BWC (body weight change)” value (Lewis lung carcinoma; mouse, in vivo, ip, 50 mg/kg) was “+0.3 g” and the “Day 7 BWC (body weight change)” value (Lewis lung carcinoma; mouse, in vivo, ip, 100 mg/kg) was “+0.5 g”. For the same compound, the “Day 7 BWC (body weight change)” value (Lewis lung carcinoma; mouse, in vivo, ip, 150 mg/kg) was -0.3 g, the “% ILS” value (B-16 Melanoma; 25 mg/kg ip) was 31% and the “N/T (40 day tumorfree mice/total)” value (B-16 Melanoma; 25 mg/kg ip) was 0/5. The “% ILS” value (B-16 Melanoma; 50 mg/kg ip) was 40%, the “N/T (40 day tumorfree mice/total)” value (B-16 Melanoma; 50 mg/kg ip) was 0/5 and the “% ILS” value (B-16 Melanoma; 150 mg/kg ip) was > 56%. For the same compound, the “N/T (40 day tumorfree mice/total)” value (B-16 Melanoma; 150 mg/kg ip) was 1/5, the inhibition at 30 µg/mL [2] was 93.5% and the inhibition at 30 µg/mL ([3]; HL-60, at 0.03 mg/mL, read-out: % Inhibition of Precursor Incorporation, Protein) was 90.7%. For the same compound, the “AST (average survival time)” value (Carcinoma EO771; 50 mg/kg, day 1, QDX4 ip) was 12.4, the “N/T (22 day survivors/total mice)” value (Carcinoma EO771; 50 mg/kg, day 1, QDX4 ip) was 0/5 and the “Survival Time, individual mice” value (Carcinoma EO771; 50 mg/kg, day 1, QDX4 ip, listed as TSA-35) was 10 and 11 and 12 and 14 and 15. The “AST (average survival time)” value (Carcinoma EO771; 100 mg/kg, day 1, QDX4 ip) was > 15, the “N/T (22 day survivors/total mice)” value (Carcinoma EO771; 100 mg/kg, day 1, QDX4 ip) was 1/3 and the “Survival Time, individual mice” value (Carcinoma EO771; 100 mg/kg, day 1, QDX4 ip, t = died of toxicity, listed as TSA-35) was 11 and > 22. The “% ILS (increase in lifespan)” value (Carcinoma EO771; ip, 50 mg/kg, 24 h) was 17%, the “% ILS (increase in lifespan)” value (Carcinoma EO771; ip, 100 mg/kg, 24 h) was > 39% and the toxicity induced deaths (Carcinoma EO771; mouse, in vivo) was “no deaths”. The “Day 7 BWC (body weight change)” value (Carcinoma EO771; mouse, in vivo, ip, 25 mg/kg) was “+0.6 g”, the “Day 7 BWC (body weight change)” value (Carcinoma EO771; mouse, in vivo, ip, 50 mg/kg) was “+0.3 g” and the “Cell Growth Inhibition, IC50” value (HL-60 cells) was 0.4 µg/mL. The “cell growth inhibition, in words” value (HL-60 cells) was “most potent compound in this series; also recorded: significant activity against leukemic cells in vitro”, the IC50 (HL-60 cells) was 1.11 µM and the IC50 (HL-60 cells; Homo sapiens) was 0.4 µg/mL and 1.1 µM. The inhibition at 30 µg/mL ([4]; at 0.03 mg/mL, read-out: % Inhibition of Precursor Incorporation, RNA) was 65.7%.
